{"source": "patent US10905744B2", "about": "“Pharmaceutical formulations for the oral delivery of peptide drugs” (Cyprumed GmbH, priority 2015, dated 2021)", "key": {"[1]": {"test": "Pharmacokinetic profiles of PTH(1-34) formulations after intestinal administration (Example 3)", "format": "in vivo, Sprague Dawley rats", "conditions": "relative to PTH(1-34) s.c.", "experimental": "Teriparatide (PTH1-34) was dosed subcutaneously in volume of 1 ml/kg (final concentration 0.024 mg/ml teriparatide) to anaesthetized rats. TER001 and TER002 were dosed into ileum in volume of 0.4 mi/kg (final concentration 0.24 mg/ml teriparatide) to anaesthetized rats. […] The teriparatide plasma concentrations were determined using commercial pTH (1-34) human ELISA kit (Biovendor, EU, cat. number RS-1163.0001)."}, "[2]": {"test": "Pharmacokinetic profile of octreotide formulations after administration into proximal jejunum (Example 8)", "experimental": "The formulations OCT002, OCT003 and OCT004 were dissolved in an octreotide stock solution 5-10 min prior to dosing into proximal jejunum in volume of 0.4 ml/kg to anaesthetized rats. The final octreotide concentration of each formulation was 0.36 mg/kg. Blood was taken from tail vessels at the time points 0, 10, 20, 40, 60, 90 and 120 min after dosing. The octreotide plasma concentration was determined using commercial octreotide kit (Peninsula Laboratories International, Inc., USA, cat.number S-1342.0001)."}, "[3]": {"conditions": "study comparing aprotinin with aminocaproic acid; cited from earlier work"}, "[4]": {"test": "GLP-1 peptide formulations with SNAC and trace elements: dissolution in aqua purificata, visual (Example 4)", "format": "physicochemical", "conditions": "liraglutide 1.8 mg/ml, SNAC 20 mg, trace element 2 mg, disodium phosphate dihydrate, 2 ml aqua purificata", "experimental": "Compositions comprising a GLP-1 peptide, a complexing agent (disodium phosphate dihydrate), the absorption enhancer N-(8-[2-hydroxybenzoyl]amino)caprylic acid (SNAC) and various trace elements or metal salts were prepared and dissolved in 2 ml of aqua purificata and examined visually."}, "trypsin": {"target": "T1, trypsin (Bos taurus, UniProt P00760)", "T1 construct": "gene PRSS1", "T1 sequence (P00760 24-246)": "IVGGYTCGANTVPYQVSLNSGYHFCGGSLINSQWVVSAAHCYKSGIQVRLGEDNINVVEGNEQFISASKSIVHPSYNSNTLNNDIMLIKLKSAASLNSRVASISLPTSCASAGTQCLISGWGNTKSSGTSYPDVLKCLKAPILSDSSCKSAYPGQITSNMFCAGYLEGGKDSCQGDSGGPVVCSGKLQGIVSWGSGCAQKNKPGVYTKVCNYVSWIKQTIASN", "test": "Trypsin inhibition, BAPNA substrate, absorbance at 405 nm (Examples 10-12, 20-22, 25, 26, 28, 29, 33)", "format": "biochemical", "conditions": "for inhibition of trypsin: 50 mM TRIS pH 7", "experimental": "100 mg/ml copper gluconate in 50 mM TRIS pH 7; pH was adjusted to pH 7; stock solution was diluted to the following concentrations: 50 mg/ml, 25 mg/ml, 12.5 mg/ml, 5 mg/ml, 6.25 mg/ml, 3.125 mg/ml, 2.5 mg/ml, 1.25 mg/ml, 0.625 mg/ml, 0.313 mg/ml, 0.156 mg/ml and 0.078 mg/ml\n0.5 mg/mL Benzoyl-Arginine p-nitroanilide (BAPNA)\n100 μl 50 mM TRIS pH 7+50 μL Trypsin Stock+50 μL BAPNA Stock\n100 μl Copper solution (according to the above described dilutions)+50 μL Trypsin Stock+50 μL BAPNA Stock\nAbsorption was measured after 15 minutes at 405 nm.\nValues were corrected (subtraction of blank).\n100 mg/ml Zinc bisglycinate in 50 mM TRIS pH 7; pH was adjusted to pH 7; stock solution was diluted to the following concentrations: 50 mg/ml and 25 mg/ml\n100 μl Zinc solution (according to the above described dilutions)+50 μL Trypsin Stock+50 μL BAPNA Stock\n10 mg/ml iron gluconate in 50 mM TRIS pH 7; pH was adjusted to pH 7; stock solution was diluted to the following concentrations: 5 mg/ml, 2.5 mg/ml, 1.25 mg/ml and 0.625 mg/ml\n100 μl Iron solution (according to the above described dilutions)+50 μL Trypsin Stock+50 μL BAPNA Stock\nAbsorption was measured directly at 405 nm.\nBenzoyl-Arginine p-nitroanilide (BAPNA): 0.5 mg/ml in 50 mM TRIS pH 7 (centrifuged and supernatant used as stock solution)\nTrypsin: […] in 50 mM TRIS pH 7\n1 mg/mL iron gluconate in 10 mM TRIS pH 7 (iron content=12%), 0.12 mg/ml iron\n[…] copper lysinate in 10 mM TRIS pH 7 (copper content=3%), 0.12 mg/ml copper\n100 μl of the respective salt solution+50 μL Trypsin Stock+50 μL BAPNA Stock\nExperiments were carried out at pH 7, 50 mM TRIS.\n0.025 mg/ml Trypsin, 0.125 mg/mL Benzoyl-Arginine p-nitroanilide (BAPNA.) Lauryl glutamate:\n0.25 mg/ml; copper content (as copper(II)gluconate): 0.035 mg/ml.\nAdsorption measurement at 405 nm\n0.025 mg/ml Trypsin, 0.125 mg/mL Benzoyl-Arginine p-nitroanilide (BAPNA). lauryl-glutamate:\nAbsorption measurement at 405 nm\n0.025 mg/ml Trypsin, 0.125 mg/mL Benzoyl-Arginine p-nitroanilide (BAPNA). Capryl-glucoside:\nCopper sulfate stock solution: 1 mg/ml of copper sulfate was dissolved in 50 mM TRIS pH 7. Copper tartrate stock solution: 1 mg/ml of copper tartrate was dispersed in 50 mM TRIS pH 7 and moderately stirred for 5 minutes. The suspension was then centrifuged at 3′000 rpm for 10 minutes, to separate the insoluble salt. The supernatant was used as stock solution for the experiments.\nZinc orotate stock solution: 1 mg/ml of zinc orotate was dispersed in 50 mM TRIS pH 7 and moderately stirred for 5 minutes. The suspension was then centrifuged at 3′000 rpm for 10 minutes, to separate the insoluble salt. The supernatant was used as stock solution for the experiments.\n100 μL of the respective salt solution stock+50 μL Trypsin Stock+50 μL BAPNA Stock\nControl: 100 μL of 50 mM TRIS pH 7+50 μL Trypsin Stock+50 μL BAPNA Stock\nFinal concentrations of protease and substrate were 0.025 mg/ml Trypsin, 0.125 mg/mL\n50 μl manganese sulfate+50 μl copper gluconate+50 μL Trypsin Stock+50 μL BAPNA Stock\nAbsorption measurement at 405 nm; final pH in all solutions was monitored to be pH 7.\n3 mg/ml SiO2—suspended in 50 mM TRIS pH 7 and centrifuged; supernatant was used for experiments.\n50 μl SiO2+50 μl 50 mM TRIS pH 7+50 μL Trypsin Stock+50 μL BAPNA Stock\n50 μl copper gluconate+50 μl SiO2+50 μL Trypsin Stock+50 μL BAPNA Stock\n50 μl iron gluconate+50 μl SiO2+50 μL Trypsin Stock+50 μL BAPNA Stock\n120 μl 50 mM TRIS pH 7+50 μL Trypsin Stock+50 μL BAPNA Stock\n80 μl copper gluconate+40 μl 50 mM TRIS pH 7+50 μL Trypsin Stock+50 μL BAPNA Stock\n40 μl copper gluconate+80 μl 50 mM TRIS pH 7+50 μL Trypsin Stock+50 μL BAPNA Stock\n80 μl iron gluconate+40 μl 50 mM TRIS pH 7+50 μL Trypsin Stock+50 μL BAPNA Stock\n40 μl iron gluconate+80 μl 50 mM TRIS pH 7+50 μL Trypsin Stock+50 μL BAPNA Stock\n80 μl iron gluconate+40 μl copper gluconate+50 μL Trypsin Stock+50 μL BAPNA Stock"}, "chymotrypsin": {"target": "chymotrypsin (Bos taurus, UniProt P00766)", "test": "Chymotrypsin inhibition, BTPNA substrate, absorbance at 405 nm (Examples 9, 13-19, 23, 24, 27, 30, 31)", "conditions": "for Inhibition %: Example 15", "method": "CuSO4.5H2O dilutions in 10 mM TRIS buffer pH 7 to 10 mM, 5 mM, 2.5 mM 1.25 mM Benzoyl-Tyrosine p-nitroanilide (BTPNA): 0.5 mg/mL BTPNA in Acetone\nStudy: • (1) 100 μl buffer (10 mM TRIS, pH=7)+50 μl Chymotrypsin Stock+50 μl BTPNA • (2) 80 μl buffer (10 mM TRIS, pH=7)+20 μl CuSO4 stock (10 mM)+50 μl Chymotrypsin Stock+50 μl BTPNA • (3) 80 μl buffer (10 mM TRIS, pH=7)+20 μl CuSO4 dilut. (5 mM)+50 μl Chymotrypsin Stock+50 μl BTPNA • (4) 80 μl buffer (10 mM TRIS, pH=7)+20 μl CuSO4 stock (2.5 mM)+50 μl Chymotrypsin Stock+50 μl BTPNA • (5) 80 μl buffer (10 mM TRIS, pH=7)+20 μl CuSO4 dilut. (1.25 mM)+50 μl Chymotrypsin Stock+50 μl BTPNA\nFinal copper concentrations: 1 mM, 0.5 mM, 0.25 mM, 0.125 mM.\n10 mM CuSO4 and Copper gluconate stock solution were diluted 1:1 with 10 mM TRIS buffer pH 7\nStudy: • (1) 100 μl buffer (10 mM TRIS, pH=7)+50 μl Chymotrypsin Stock+50 μl BTPNA • (2) 80 μl buffer (10 mM TRIS, pH=7)+20 μl CuSO4 dil. (5 mM)+50 μl Chymotrypsin Stock+50 μl BTPNA • (3) 80 μl buffer (10 mM TRIS, pH=7)+20 μl Copper gluconate dilut. (5 mM)+50 μl Chymotrypsin Stock+50 μl BTPNA • (4) 100 μl Cu-bisglycinate stock (0.5 mM)+50 μl Chymotrypsin Stock+50 μl BTPNA\n10 mM CuSO4 stock solution was diluted 1:1 with 10 mM TRIS Puffer pH 7\nStudy: • (1) 30 μl buffer (10 mM TRIS, pH=7)+20 μl CuSO4 dil. (5 mM)+100 μl Chymotrypsin Stock: 30 min. incubation, then addition of 50 μl BTPNA • (2) 30 μl buffer (10 mM TRIS, pH=7)+100 μl Chymotrypsin Stock: 30 min. incubation, then addition of 20 μl CuSO4 dil. (5 mM)+50 μl BTPNA\nFinal copper concentration: 0.5 mM\nIron(II)-bisglycinate solution containing 1.86 mM of iron in 10 mM TRIS buffer pH 7 was prepared\nCu(II)-gluconate solution containing 2.0 mM of copper in 10 mM TRIS buffer pH 7 was prepared\nStudy: • (1) 100 μl buffer (10 mM TRIS, pH=7)+50 μl Chymotrypsin Stock+50 μl BTPNA • (2) 100 μl iron(II)-bisglycinate+50 μl Chymotrypsin Stock+50 μl BTPNA • (3) 100 μl copper(II)-gluconate+50 μl Chymotrypsin Stock+50 μl BTPNA\nValues were corrected (subtraction of blank). Inhibition was calculated by setting the absorption value of (1) at each time-point as 100%.\nIron(II)-bisglycinate solution containing 0.46 mM of iron in 10 mM TRIS buffer pH 7 was prepared\nCu(II)- bisglycinate solution containing 0.46 mM of copper in 10 mM TRIS buffer pH 7 was prepared\nStudy: • (1) 100 μl buffer (10 mM TRIS, pH=7)+50 μl Chymotrypsin Stock+50 μl BTPNA • (2) 100 μl iron(II)-bisglycinate+50 μl Chymotrypsin Stock+50 μl BTPNA • (3) 100 μl copper(II)-bisglycinate+50 μl Chymotrypsin Stock+50 μl BTPNA\nValues were corrected (subtraction of blank). Inhibition (%) was calculated by setting the absorption value of (1) at each time-point as 100% degradation.\nValues were corrected (subtraction of blank). pH was confirmed to be pH 7 after the experiment.\n0.025 mg/ml Chymotrypsin, 0.05 mg/mL Benzoyl-Tyrosine p-nitroanilide (BTPNA). Lauryl glutamate: 0.25 mg/ml; copper (as copper gluconate): 0.035 mg/ml.\n0.025 mg/ml Chymotrypsin, 0.05 mg/mL Benzoyl-Tyrosine p-nitroanilide (BTPNA). Lauryl glutamate: 0.25 mg/ml; iron (as iron gluconate): 0.03 mg/ml.\n100 μl 50 mM TRIS pH 7+50 μL Chymotrypsin Stock+50 μL BTPNA Stock\n50 μl Beta-cyclodextrin+50 μl 50 mM TRIS pH 7+50 μL Chymotrypsin Stock+50 μL BTPNA Stock\n50 μl copper gluconate+50 μl 50 mM TRIS pH 7+50 μL Chymotrypsin Stock+50 μL BTPNA Stock\n50 μl copper gluconate+50 μl Beta-cyclodextrin+50 μL Chymotrypsin Stock+50 μL BTPNA Stock\n50 μl copper gluconate+50 μl trisodium phosphate+50 μL Chymotrypsin Stock+50 μL BTPNA Stock\n50 μl iron gluconate+50 μl trisodium phosphate+50 μL Chymotrypsin Stock+50 μL BTPNA Stock\nExperiments were carried out at pH 7 in 50 mM TRIS buffer."}, "[5]": {"conditions": "Sprague Dawley, rat, in vivo, sc"}, "[6]": {"conditions": "Example 20, solutions 1 mg/mL iron gluconate, 1 mg/mL copper gluconate, 12 mg/mL copper lysinate, FIG. 11"}, "[7]": {"conditions": "Example 33, stocks 1 mg/ml copper(II)gluconate, 1 mg/ml iron(II)gluconate, 40 or 80 μl, pH 7, FIG. 23"}}}
{"compound": "CC[C@H](C)[C@H](NC(=O)[C@H](CCC(=O)O)NC(=O)[C@H](CO)NC(=O)[C@@H](NC(=O)[C@@H](N)CO)C(C)C)C(=O)N[C@@H](CCC(N)=O)C(=O)N[C@@H](CC(C)C)C(=O)N[C@@H](CCSC)C(=O)N[C@@H](Cc1cnc[nH]1)C(=O)N[C@@H](CC(N)=O)C(=O)N[C@@H](CC(C)C)C(=O)NCC(=O)N[C@@H](CCCCN)C(=O)N[C@@H](Cc1cnc[nH]1)C(=O)N[C@@H](CC(C)C)C(=O)N[C@@H](CC(N)=O)C(=O)N[C@@H](CO)C(=O)N[C@@H](CCSC)C(=O)N[C@@H](CCC(=O)O)C(=O)N[C@@H](CCCN=C(N)N)C(=O)N[C@H](C(=O)N[C@@H](CCC(=O)O)C(=O)N[C@@H](Cc1c[nH]c2ccccc12)C(=O)N[C@@H](CC(C)C)C(=O)N[C@@H](CCCN=C(N)N)C(=O)N[C@@H](CCCCN)C(=O)N[C@@H](CCCCN)C(=O)N[C@@H](CC(C)C)C(=O)N[C@@H](CCC(N)=O)C(=O)N[C@@H](CC(=O)O)C(=O)N[C@H](C(=O)N[C@@H](Cc1cnc[nH]1)C(=O)N[C@@H](CC(N)=O)C(=O)N[C@@H](Cc1ccccc1)C(=O)O)C(C)C)C(C)C", "note": "[PTH (1-34) s.c., Teriparatide]", "values": [{"measurement": "F", "setting": "[1]", "value": "100 ± 23", "unit": "%"}]}
{"compound": "C[C@@H](O)[C@@H]1NC(=O)[C@H](CCCCN)NC(=O)[C@@H](Cc2c[nH]c3ccccc23)NC(=O)[C@H](Cc2ccccc2)NC(=O)[C@@H](NC(=O)[C@H](N)Cc2ccccc2)CSSC[C@@H](C(=O)N[C@H](CO)[C@@H](C)O)NC1=O", "note": "[Reference (s.c.), Octreotide]", "values": [{"measurement": "ΔAUC(0-120)", "setting": "[2]; OCT formulations 0.4 ml/kg into proximal jejunum, octreotide 0.36 mg/kg, reference s.c., anaesthetized rats", "value": "14126 ± 2727", "unit": "ng·min/mL"}, {"measurement": "bioavailability", "setting": "[2]; Sprague Dawley, rat, in vivo", "value": "100 ± 19", "unit": "%"}, {"measurement": "Cmax", "setting": "[2]; [5]", "value": "148 ± 36", "unit": "ng/mL"}, {"measurement": "Tmax", "setting": "[2]; [5]", "value": 1.5, "unit": "h"}]}
{"compound": "Aprotinin", "values": [{"measurement": "increase in mortality", "setting": "[3]", "value": 64, "unit": "%"}]}
{"compound": "Copper gluconate", "values": [{"measurement": "Dissolution in aqua purificata", "setting": "[4]", "value": "Clear yellowish solution"}, {"measurement": "inhibition of trypsin", "setting": "trypsin; Example 10, copper gluconate solutions 100 to 0.078 mg/ml, after 15 minutes, FIG. 3", "value": "inhibits the proteolytic enzyme trypsin in a dose dependent manner"}, {"measurement": "trypsin inhibition", "setting": "trypsin; [6]", "value": "can be inhibited"}, {"measurement": "trypsin inhibition", "setting": "trypsin; Example 21, lauryl glutamate […], copper […], pH 7, 50 mM TRIS, FIG. 12", "value": "can be inhibited"}, {"measurement": "trypsin inhibition", "setting": "trypsin; Example 28, stocks 1 mg/ml copper(II)gluconate, 1 mg/ml manganese(II)sulfate, pH 7, FIG. 19", "value": "can be inhibited"}, {"measurement": "trypsin inhibition", "setting": "trypsin; [7]", "value": "can be inhibited"}, {"measurement": "Inhibition %", "setting": "chymotrypsin; 0 minutes, metal ion Fe 0.06 mg/ml (0.92 mM), Cu 0.065 mg/ml (1.0 mM), 10 mM TRIS pH 7", "value": 0, "unit": "%"}, {"measurement": "Inhibition %", "setting": "chymotrypsin; 15 minutes, metal ion Fe 0.92 mM, Cu 1.0 mM", "value": 82, "unit": "%"}, {"measurement": "Inhibition %", "setting": "chymotrypsin; 30 minutes, metal ion Fe 0.92 mM, Cu 1.0 mM", "value": 84, "unit": "%"}, {"measurement": "Inhibition %", "setting": "chymotrypsin; 45 minutes, metal ion Fe 0.92 mM, Cu 1.0 mM", "value": 82, "unit": "%"}, {"measurement": "Inhibition %", "setting": "chymotrypsin; 60 minutes, metal ion Fe 0.92 mM, Cu 1.0 mM", "value": 79, "unit": "%"}, {"measurement": "chymotrypsin inhibition", "setting": "chymotrypsin; Example 18, stocks: copper gluconate 10 mM, EDTA 5 mM, sodium caprylate 4 mg/ml, pH 7, FIG. 9", "value": "can inhibit chymotrypsin"}, {"measurement": "chymotrypsin inhibition", "setting": "chymotrypsin; Example 23, lauryl glutamate […], copper […], pH 7, 50 mM TRIS, FIG. 14", "value": "can be inhibited"}, {"measurement": "chymotrypsin inhibition", "setting": "chymotrypsin; Example 27, stocks […] copper(II)gluconate, 1 mg/ml beta-cyclodextrin, FIG. 18", "value": "can be inhibited"}, {"measurement": "chymotrypsin inhibition", "setting": "chymotrypsin; Example 31, stocks […] copper(II)gluconate, 1.25 mM EDTA, pH 7, 10 mM TRIS, FIG. 22", "value": "can be inhibited"}]}
{"compound": "Iron gluconate", "values": [{"measurement": "Dissolution in aqua purificata", "setting": "[4]", "value": "Clear orange solution"}, {"measurement": "inhibition of trypsin", "setting": "trypsin; Example 12, iron gluconate solutions 10 to 0.625 mg/ml, FIG. 5", "value": "inhibits the proteolytic enzyme trypsin in a dose dependent manner"}, {"measurement": "trypsin inhibition", "setting": "trypsin; [6]", "value": "can be inhibited"}, {"measurement": "trypsin inhibition", "setting": "trypsin; Example 22, lauryl-glutamate […], iron 0.03 mg/ml, pH 7, 50 mM TRIS, FIG. 13", "value": "can be inhibited"}, {"measurement": "trypsin inhibition", "setting": "trypsin; Example 25, capryl-glucoside […], iron 0.03 mg/ml, pH 7, 50 mM TRIS, FIG. 16", "value": "can be inhibited"}, {"measurement": "trypsin inhibition", "setting": "trypsin; [7]", "value": "can be inhibited"}, {"measurement": "chymotrypsin inhibition", "setting": "chymotrypsin; Example 24, lauryl glutamate […], iron 0.03 mg/ml, pH 7, 50 mM TRIS, FIG. 15", "value": "can be inhibited"}]}
